According to patent US20230312473A1, “PROCESS FOR THE PREPARATION OF BIHETEROARYL COMPOUNDS AND CRYSTAL FORMS THEREOF” (Genentech, Inc., priority 2020, published 2023):

Key:
[1] = Crystallization study: crystalline form by XRPD; format: physicochemical
Protocol: In Example 14, X-ray powder diffraction (“XRPD”), a sample of compound 1 was prepared in an open quartz glass capillary with a diameter of 0.9 mm (and was not further processed, such as by grinding). A Stoe high-low temperature attachment (working range −50 to 300) with a NiCr/Ni thermocouple for temperature measurement controlled the respective temperature conditions. The measurements were carried out with a rotating capillary and the following parameters. STOE STADI diffractometer; MYTHEN 1K detector; CuKα, 1.5406 Å radiation; Ge monochromator; 40 kV, 40 mA; moving scan; 1800 seconds per step; 2θ=3-42 degrees; 5° C./min ramp rate; and 5° C. temperature step.
Compound 1 was prepared from crude compound 1 according to the following procedure. Crude compound 1 (46 kg) was dissolved in 1080 kg of isopropyl acetate at 88.6° C. After cooling to 71° C., the solution was passed through a pre-washed and pre-heated charcoal filter. The charcoal filter was rinsed with 400 kg of hot isopropyl acetate. Under reduced pressure, the volume of the combined filtrates was concentrated to a total of 760 to 780 L. The resulting suspension was heated to 88° C. Isopropyl acetate was then added in portions (85 kg in total) to achieve complete dissolution at 88° C. The solution was cooled to 69° C. leading to a suspension which was then cooled to 0° C. within 190 minutes, and stirred at this temperature for 900 minutes. The product was isolated by filtration and rinsed with portions of cold isopropyl acetate (400 kg in total). After drying at […]/10 mbar for about 40 hours, 38.5 kg (approx. 84% of theoretical yield) of crystallized compound 1 was obtained.
Crystalline compound 1 was evaluated. Crystallization study procedures were done based on the solubility of compound 1 in the solvent under evaluation as follows.
The results are presented below in Table 10 where: * refers to compound 1 prepared as described above; and ** refers to compound 1 prepared as described above and further incubated at 100% relative humidity at 22° C. for 17 days.

[2] = Mechanical stress evaluation: thermogravimetric analysis (TGA); format: physicochemical
Protocol: Compound 1, produced generally according to the method of Example 5, was evaluated for changes induced mechanical stress conditions, where crystallinity was evaluated by XRPD and where thermoanalytic characteristics were measured by differential scanning calorimetry (“DSC”), thermogravimetric analysis (“TGA”) and dynamic vapor sorption (“DVS”).
About 500 mg of compound 1 was dry grinded for about 5 minutes at ambient conditions with a mortar and pestle in order to simulate shear stresses encountered during a dry granulation. […] Furthermore, thermoanalytic data as measured by DSC, TGA, and DVS was only marginally different from compound 1 starting material (see Table 12 below).
The effect of pressure on compound 1 was performed to investigate whether phase transformation could occur during tableting. The conditions were 1.8 T/5 mm compact, 900 MPa, about 30 mg of compound 1, and a dwell time of about 6 seconds). The tablets were analyzed without further treatment and after gentle crushing of the tablets with a pestle. […] FIG. 2 pattern (b) is the XRPD pattern for crushed tablets. FIG. 2 pattern (c) is the XRPD pattern for tablets that were not crushed.
To simulate wet milling, wet manual grinding experiments were done. About 500 mg of compound 1 and about 0.5 mL water were kneaded for about 5 minutes with a mortar and pestle. About 100 mg of the wet material was analyzed by XRPD. The remainder of the material was dried overnight in an oven at 50° C. and ambient pressure. The dried material was analyzed by […], DSC, TGA, and DVS.

Question: Which results are given for Nc1ncc(-c2cc(N3C[C@@H]4C[C@H]3CO4)nc(N3CCC(F)(F)C3)n2)cc1OC(F)F [Compound 1, 5-(6-((1S,4S)-2-oxa-5-azabicyclo[2.2.1]heptan-5-yl)-2-(3,3-difluoropyrrolidin-1-yl)pyrimidin-4-yl)-3-(difluoromethoxy)pyridin-2-amine]?
Answer: Crystalline Form ([1]; * compound 1 as prepared (crystallized from isopropyl acetate)): Form A; Crystalline Form ([1]; ** as prepared and further incubated at 100% relative humidity at 22° C. for 17 days): Form A; Crystalline Form ([1]; crystallization study solvent: 2-methyl THF): Form A; Crystalline Form ([1]; crystallization study solvent: 5% water in ethanol): Form A; Crystalline Form ([1]; crystallization study solvent: 5% water in isopropanol): Form A; Crystalline Form ([1]; crystallization study solvent: 5% water in methanol): Form A; Crystalline Form ([1]; crystallization study solvent: 5% water in propanol): Form A; Crystalline Form ([1]; crystallization study solvent: 15% water in THF): Form A; Crystalline Form ([1]; crystallization study solvent: 15% water in acetone): Form A; Crystalline Form ([1]; crystallization study solvent: 15% water in ethanol): Form A; Crystalline Form ([1]; crystallization study solvent: 15% water in isopropanol): Form A; Crystalline Form ([1]; crystallization study solvent: 15% water in methanol): Form A; Crystalline Form ([1]; crystallization study solvent: 15% water in propanol): Form A; Crystalline Form ([1]; crystallization study solvent: 20% water in acetonitrile): Form A; Crystalline Form ([1]; crystallization study solvent: 50% water in acetonitrile): Form A; Crystalline Form ([1]; crystallization study solvent: 50% water in ethanol): Form A; Crystalline Form ([1]; crystallization study solvent: 50% water in isopropanol): Form A; Crystalline Form ([1]; crystallization study solvent: 50% water in methanol): Form A; Crystalline Form ([1]; crystallization study solvent: 50% water in propanol): Form A; Crystalline Form ([1]; crystallization study solvent: 80% water in acetonitrile): Form A; Crystalline Form ([1]; crystallization study solvent: Acetic acid): Form A; Crystalline Form ([1]; crystallization study solvent: Acetone): Form A; Crystalline Form ([1]; crystallization study solvent: Acetonitrile): Form A; Crystalline Form ([1]; crystallization study solvent: Butanol): Form A; Crystalline Form ([1]; crystallization study solvent: Chloroform): Form A; Crystalline Form ([1]; crystallization study solvent: DMA): Form A; Crystalline Form ([1]; crystallization study solvent: DMF): Form A; Crystalline Form ([1]; crystallization study solvent: DMSO): Form A; Crystalline Form ([1]; crystallization study solvent: Dichloromethane): Form A; Crystalline Form ([1]; crystallization study solvent: Diisopropylamine): Form A; Crystalline Form ([1]; crystallization study solvent: Dimethyl carbonate): Form A; Crystalline Form ([1]; crystallization study solvent: Dioxane): Form A; Crystalline Form ([1]; crystallization study solvent: Ethanol): Form A; Crystalline Form ([1]; crystallization study solvent: Ethyl acetate): Form A; Crystalline Form ([1]; crystallization study solvent: Isopropanol): Form A; Crystalline Form ([1]; crystallization study solvent: Isopropyl acetate): Form A; Crystalline Form ([1]; crystallization study solvent: MEK): Form A; Crystalline Form ([1]; crystallization study solvent: MIBK): Form A; Crystalline Form ([1]; crystallization study solvent: MTBE): Form A; Crystalline Form ([1]; crystallization study solvent: Methanol): Form A; Crystalline Form ([1]; crystallization study solvent: NMP): Form A; Crystalline Form ([1]; crystallization study solvent: Nitromethane): Form A; Crystalline Form ([1]; crystallization study solvent: Propanol): Form A; Crystalline Form ([1]; crystallization study solvent: THF): Form A; Crystalline Form ([1]; crystallization study solvent: Toluene): Form A; Crystalline Form ([1]; crystallization study solvent: Water): Form A; Crystalline Form ([1]; crystallization study solvent: i-Butanol): Form A; Crystalline Form ([1]; crystallization study solvent: n-Heptane): Form A; Crystalline Form ([1]; crystallization study solvent: s-butanol): Form A; TGA Total wt. loss ([2]; after Dry Granulation (dry grinding about 5 minutes, mortar and pestle)): 0.2% m/m; TGA Total wt. loss ([2]; after Tableting (900 MPa)): 0.3% m/m; TGA Total wt. loss ([2]; after Tableting (crushing)): 0.3% m/m; TGA Total wt. loss ([2]; after Wet Granulation (wet manual grinding with water, dried at 50° C.)): 0.2% m/m; TGA Total wt. loss ([2]; untreated compound 1 starting material): 0.1% m/m
